Results published in article PMC4303209, “A novel phosphatidylinositol 3-kinase (PI3K) inhibitor directs a potent FOXO-dependent, p53-independent cell cycle arrest phenotype characterized by the differential induction of a subset of FOXO-regulated genes” (Breast Cancer Research : BCR, 2014).

Tested on: MCF-7 breast cancer cells
Experiment: Microarray gene expression analysis (Agilent whole human genome 4 x 44K; compound vs DMSO, LIMMA log2 fold change)
Format: cell-based

Structure (SMILES): Oc1cccc(-c2nc(N3CCOCC3)c3oc4ncccc4c3n2)c1 [PI-103]
- PDGFRB log2FC (gene PDGFRB (5159), apoptosis genes): 0.024
- PEG3 log2FC (gene PEG3 (5178), apoptosis genes): 0.129
- PEG10 log2FC (gene PEG10 (23089), apoptosis genes): -0.104
- PF4 log2FC (gene PF4 (5196), apoptosis genes): -0.033
- PHLDA3 log2FC (gene PHLDA3 (23612), apoptosis genes): 0.113
- PIK3CG log2FC (gene PIK3CG (5294), apoptosis genes): -0.004
- PKP1 log2FC (gene PKP1 (5317), apoptosis genes): 0.031
- PLEKHG5 log2FC (gene PLEKHG5 (57449), apoptosis genes): 0.199
- PLSCR3 log2FC (gene PLSCR3 (57048), apoptosis genes): 0.125
- POLB log2FC (gene POLB (5423), apoptosis genes): -0.249
- log2FC (gene POLD4 (Gene 57804), cell cycle genes): 0.0256
- POR log2FC (gene POR (5447), apoptosis genes): 0.107
- POU3F4 log2FC (gene POU3F4 (5456), apoptosis genes): -0.017
- POU4F1 log2FC (gene POU4F1, apoptosis genes): 0.019
- log2FC (gene PPAT (Gene 10606), cell cycle genes): 0.08
- log2FC (gene PPP1CA (Gene 5499), cell cycle genes): -0.18
- log2FC (gene PPP2CA (Gene 5515), cell cycle genes): -0.52
- PPP2R1A log2FC (gene PPP2R1A (5518), apoptosis genes): 0.062
- PRAMEF8 log2FC (gene PRAMEF8 (391002), apoptosis genes): 0.060
- PRAMEF10 log2FC (gene PRAMEF10 (343071), apoptosis genes): 0.251
- log2FC (gene PRKACB (Gene 5567), cell cycle genes): 0.52
- log2FC PRKAG3 (gene PRKAG3 (Gene 53632), cell cycle genes): -0.0237
- PRKRA log2FC (gene PRKRA (8575), apoptosis genes): -0.093
- PRLR log2FC (gene PRLR (5618), apoptosis genes): 0.00543
- PROC log2FC (gene PROC (5624), apoptosis genes): 0.030
- PROP1 log2FC (gene PROP1 (5626), apoptosis genes): 0.324
- PSMA1 log2FC (gene PSMA1 (5682), apoptosis genes): -0.030
- log2FC (gene PSMA2 (Gene 5683), cell cycle genes): 0.17
- log2FC (gene PSMA3 (Gene 5684), cell cycle genes): 0.14
- PSMA5 log2FC (gene PSMA5 (5686), apoptosis genes): -0.147
- log2FC PSMA5 (gene PSMA5 (Gene 5686), cell cycle genes): -0.15
- PSMA7 log2FC (gene PSMA7 (5688), apoptosis genes): -2.082
- log2FC PSMA7 (gene PSMA7 (Gene 5688), cell cycle genes): -2.08
- PSMB3 log2FC (gene PSMB3 (5691), apoptosis genes): 0.053
- log2FC (gene PSMB4 (Gene 5692), cell cycle genes): 0.17
- PSMB7 log2FC (gene PSMB7 (5695), apoptosis genes): -0.149
- log2FC PSMB7 (gene PSMB7 (Gene 5695), cell cycle genes): -0.15
- PSMB8 log2FC (gene PSMB8 (5696), apoptosis genes): -0.00568
- PSMC4 log2FC (gene PSMC4 (5704), apoptosis genes): -0.023
- log2FC PSMC4 (gene PSMC4 (Gene 5704), cell cycle genes): -0.0233
- PSMD2 log2FC (gene PSMD2 (5708), apoptosis genes): 0.00374
- PSMD13 log2FC (gene PSMD13 (5719), apoptosis genes): -0.172
- log2FC (gene PSMD14 (Gene 10213), cell cycle genes): 0.15
- log2FC (gene PSME1 (Gene 5720), cell cycle genes): 0.31
- PSME2 log2FC (gene PSME2 (5721), apoptosis genes): 0.039
- log2FC (gene PTTG1 (Gene 9232), cell cycle genes): -0.21
- PYCARD log2FC (gene PYCARD (29108), apoptosis genes): -0.121
- log2FC (gene RAB11FIP3 (Gene 9727), cell cycle genes): -0.14
- log2FC RAD51C (gene RAD51C (Gene 5889), cell cycle genes): -0.24
- log2FC RAE1 (gene RAE1 (Gene 8480), cell cycle genes): -0.15
- RAF1 log2FC (gene RAF1 (5894), apoptosis genes): -0.081
- log2FC (gene RALA (Gene 5898), cell cycle genes): 0.34
- log2FC (gene RALB (Gene 5899), cell cycle genes): 0.08
- RAMP2 log2FC (gene RAMP2 (10266), apoptosis genes): 0.059
- log2FC RANGAP1 (gene RANGAP1 (Gene 5905), cell cycle genes): -0.09
- RAPSN log2FC (gene RAPSN (5913), apoptosis genes): -0.146
- RARB log2FC (gene RARB (5915), apoptosis genes): 0.00425
- RASSF6 log2FC (gene RASSF6 (166824), apoptosis genes): 0.020
- log2FC (gene RBBP8 (Gene 5932), cell cycle genes): 0.34
- log2FC (gene RBL1 (Gene 5933), cell cycle genes): 0.17
- log2FC (gene RBM7 (Gene 10179), cell cycle genes): 0.23
- log2FC (gene RCC1 (Gene 1104), cell cycle genes): -0.14
- log2FC REEP4 (gene REEP4 (Gene 80346), cell cycle genes): 0.28
- RET log2FC (gene RET (5979), apoptosis genes): -0.025
- RHOT2 log2FC (gene RHOT2 (89941), apoptosis genes): 0.051
- log2FC RPA2 (gene RPA2 (Gene 6118), cell cycle genes): -0.25
- RPS3 log2FC (gene RPS3 (6188), apoptosis genes): -0.043
- RPS6KA2 log2FC (gene RPS6KA2 (6196), apoptosis genes): 0.189
- log2FC (gene RPS6KB1 (Gene 6198), cell cycle genes): 0.25
- RRN3 log2FC (gene RRN3 (653390), apoptosis genes): 0.004
- log2FC (gene RSPO1 (Gene 284654), cell cycle genes): -0.11
- RYR2 log2FC (gene RYR2 (6262), apoptosis genes): -0.075
- S100A9 log2FC (gene S100A9 (6280), apoptosis genes): 0.057
- S100A14 log2FC (gene S100A14 (57402), apoptosis genes): 0.033
- log2FC (gene SART1 (Gene 9092), cell cycle genes): -0.00235
- SCIN log2FC (gene SCIN (85477), apoptosis genes): -0.013
- log2FC (gene SEH1L (Gene 81929), cell cycle genes): -0.57
- SEMA5A log2FC (gene SEMA5A (9037), apoptosis genes): -0.022
